This note sets out measurements from ChEMBL document CHEMBL1158303, “Macrocarpals H, I, and J from the Leaves of Eucalyptus globulus” (1996).

The test system of test [1] is Streptococcus sobrinus. The test is described as follows: Inhibition of Streptococcus sobrinus glucosyltransferase assessed as blockade of adherent water insoluble glucan synthesis at 100 ug/mL.
In test [2] the test system is Streptococcus sobrinus. Briefly: Inhibition of Streptococcus sobrinus glucosyltransferase assessed as blockade of adherent water insoluble glucan synthesis at 10 ug/mL.
Test [3] deals with Streptococcus sobrinus. Briefly: Inhibition of Streptococcus sobrinus glucosyltransferase assessed as blockade of adherent water insoluble glucan synthesis at 1 ug/mL.
For test [4], the system named is Streptococcus mutans. Briefly: Antibacterial activity against Streptococcus mutans Ingbritt by broth dilution method. The test is classed as functional.
Test [5] concerns Streptococcus mutans. The test is described as follows: Antibacterial activity against Streptococcus mutans LA7 by broth dilution method. The test is classed as functional. (In general: Dilution methods test growth across graded concentrations, often in twofold steps.)
Test [6] concerns Streptococcus sobrinus. Briefly: Antibacterial activity against Streptococcus sobrinus 6715 by broth dilution method. Format: functional.
In test [7] the test system is Streptococcus sobrinus. Briefly: Antibacterial activity against Streptococcus sobrinus B13 by broth dilution method. The test is classed as functional.
A further test deals with Actinomyces viscosus. The test is described as follows: Antibacterial activity against Actinomyces viscosus 15987 by broth dilution method. Format: functional.
The next test concerns Porphyromonas gingivalis. Briefly: Antibacterial activity against Porphyromonas gingivalis 33277 by broth dilution method. Format: functional.
Test [8] has as its system Prevotella melaninogenica. The test is described as follows: Antibacterial activity against Prevotella melaninogenica 25845 by broth dilution method. The test is classed as functional.
The subject of another test is Prevotella intermedia. Briefly: Antibacterial activity against Prevotella intermedia 25611 by broth dilution method. The test is classed as functional.
The subject of a further test is Capnocytophaga ochracea. The test is described as follows: Antibacterial activity against Capnocytophaga ochracea 33596 by broth dilution method. Format: functional.
The next test has as its system Fusobacterium nucleatum. Briefly: Antibacterial activity against Fusobacterium nucleatum 25586 by broth dilution method. The test is classed as functional.

Values after ≈ are worked out from the molar mass of the structure shown.

For the compound `O=C(O[C@@H]1Cc2c(O)cc(O)cc2O[C@@H]1c1cc(O)c(O)c(O)c1)c1cc(O)c(O)c(O)c1`, the figures for the inhibition with Streptococcus sobrinus [1], in the test on Streptococcus sobrinus [2] and with Streptococcus sobrinus [3] were 26.5%, 10.5% and 3%, respectively.

For `CC(=O)CC[C@@H]1[C@H]([C@H]2C(=O)CC[C@]2(C)C(CC(C)C)c2c(O)c(C=O)c(O)c(C=O)c2O)C1(C)C` (some centres not stated) [EUCALYPTONE], the minimum inhibitory concentration (MIC) came to 12.5 µg/mL (≈ 25.7 µM) against Streptococcus mutans [4]; 12.5 µg/mL (≈ 25.7 µM) with Streptococcus mutans [5]; 25 µg/mL (≈ 51.4 µM) in the test with Streptococcus sobrinus [6]; 25 µg/mL (≈ 51.4 µM) against Streptococcus sobrinus [7]; 3.13 µg/mL (≈ 6.43 µM) in the test on Actinomyces viscosus; 1.56 µg/mL (≈ 3.21 µM) against Porphyromonas gingivalis. For the same compound, the MIC in [8] stood at 3.13 µg/mL (≈ 6.43 µM); in the test on Prevotella intermedia, 0.78 µg/mL (≈ 1.6 µM); with Capnocytophaga ochracea, 3.13 µg/mL (≈ 6.43 µM); with Fusobacterium nucleatum, 6.25 µg/mL (≈ 12.8 µM). Besides, the inhibition in the test with Streptococcus sobrinus [1] turned out to be 97.6%; with Streptococcus sobrinus [2], 44%; in the test with Streptococcus sobrinus [3] it was 4.4%.

Consider `CC(C)C[C@@H](c1c(O)c(C=O)c(O)c(C=O)c1O)[C@@]1(C)CC[C@@H]2[C@@H]1[C@H]1[C@@H](CC[C@@]2(C)O)C1(C)C` [MACROCARPAL A], for which the minimum inhibitory concentration (MIC) is 0.78 µg/mL (≈ 1.65 µM) in the test with Streptococcus mutans [4]; 0.78 µg/mL (≈ 1.65 µM) in the test with Streptococcus mutans [5]; 1.56 µg/mL (≈ 3.3 µM) in the test with Streptococcus sobrinus [6]; 1.56 µg/mL (≈ 3.3 µM) in the test on Streptococcus sobrinus [7]; 0.39 µg/mL (≈ 0.825 µM) with Actinomyces viscosus; 0.39 µg/mL (≈ 0.825 µM) with Porphyromonas gingivalis. The minimum inhibitory concentration (MIC) amounted to 0.78 µg/mL (≈ 1.65 µM) in test [8], 0.39 µg/mL (≈ 0.825 µM) in the test on Prevotella intermedia, 0.78 µg/mL (≈ 1.65 µM) against Capnocytophaga ochracea and 6.25 µg/mL (≈ 13.2 µM) against Fusobacterium nucleatum. For the same compound, the inhibition worked out at 97.1% with Streptococcus sobrinus [1], 75.4% with Streptococcus sobrinus [2] and 9.7% with Streptococcus sobrinus [3].

`CC(C)C[C@H](c1c(O)c(C=O)c(O)c(C=O)c1O)[C@@]1(C)CC[C@@H]2[C@@H]1[C@H]1[C@@H](CC[C@@]2(C)O)C1(C)C` [MACROCARPAL B]: the MIC in the test on Streptococcus mutans [4] stood at 3.13 µg/mL (≈ 6.62 µM); in the test with Streptococcus mutans [5], 1.56 µg/mL (≈ 3.3 µM); in the test on Streptococcus sobrinus [6], 3.13 µg/mL (≈ 6.62 µM); against Streptococcus sobrinus [7], 3.13 µg/mL (≈ 6.62 µM); against Actinomyces viscosus it was 0.39 µg/mL (≈ 0.825 µM); in the test on Porphyromonas gingivalis, 0.78 µg/mL (≈ 1.65 µM). Further, the MIC amounted to 3.13 µg/mL (≈ 6.62 µM) in [8], 1.56 µg/mL (≈ 3.3 µM) with Prevotella intermedia, 1.56 µg/mL (≈ 3.3 µM) in the test on Capnocytophaga ochracea and 3.13 µg/mL (≈ 6.62 µM) with Fusobacterium nucleatum. Moreover, the results for the inhibition in the test on Streptococcus sobrinus [1], in the test with Streptococcus sobrinus [2] and in the test with Streptococcus sobrinus [3] were 97.1%, 67.6% and 10.1%, respectively.

In the case of `C=C1CC[C@@H]2[C@H]([C@H]3[C@H]1CC[C@]3(C)[C@@H](CC(C)C)c1c(O)c(C=O)c(O)c(C=O)c1O)C2(C)C` [MACROCARPAL C], the MIC in the test with Streptococcus mutans [4] came to 0.39 µg/mL (≈ 0.858 µM); in the test with Streptococcus mutans [5] it was 0.39 µg/mL (≈ 0.858 µM); against Streptococcus sobrinus [6], 1.56 µg/mL (≈ 3.43 µM); against Streptococcus sobrinus [7] it was 1.56 µg/mL (≈ 3.43 µM); in the test with Actinomyces viscosus, 0.2 µg/mL (≈ 0.44 µM); against Porphyromonas gingivalis, 0.2 µg/mL (≈ 0.44 µM). For the same compound, the MIC in test [8] amounted to 1.56 µg/mL (≈ 3.43 µM); against Prevotella intermedia, 0.39 µg/mL (≈ 0.858 µM); in the test with Capnocytophaga ochracea, 0.39 µg/mL (≈ 0.858 µM); against Fusobacterium nucleatum, 0.78 µg/mL (≈ 1.72 µM). Also, the results for the inhibition in the test on Streptococcus sobrinus [1], in the test on Streptococcus sobrinus [2] and in the test on Streptococcus sobrinus [3] were 98.9%, 92.6% and 18.9%, respectively.

`CC(C)C[C@@H](c1c(O)c(C=O)c(O)c(C=O)c1O)[C@@]1(C)CC[C@H]2C1=C[C@H](C(C)(C)O)CC[C@H]2C` [MACROCARPAL D]: the MIC came out at 1.56 µg/mL (≈ 3.3 µM) in the test on Streptococcus mutans [4]; 0.78 µg/mL (≈ 1.65 µM) with Streptococcus mutans [5]; 3.13 µg/mL (≈ 6.62 µM) in the test with Streptococcus sobrinus [6]; 0.78 µg/mL (≈ 1.65 µM) with Streptococcus sobrinus [7]; 0.39 µg/mL (≈ 0.825 µM) against Actinomyces viscosus; 0.39 µg/mL (≈ 0.825 µM) against Porphyromonas gingivalis. For the same compound, the MIC came to 1.56 µg/mL (≈ 3.3 µM) in [8], 0.39 µg/mL (≈ 0.825 µM) against Prevotella intermedia, 1.56 µg/mL (≈ 3.3 µM) against Capnocytophaga ochracea and 6.25 µg/mL (≈ 13.2 µM) with Fusobacterium nucleatum. Moreover, the inhibition in the test on Streptococcus sobrinus [1] came to 99%; with Streptococcus sobrinus [2] it was 78.2%; in the test on Streptococcus sobrinus [3] it was 17.3%.

As to `C=C1CC[C@@H]([C@H](CC(C)C)c2c(O)c(C=O)c(O)c(C=O)c2O)[C@]2(C)CC[C@@H](C(C)(C)O)C[C@@H]12` [MACROCARPAL H], the MIC in the test on Streptococcus mutans [4] turned out to be 3.13 µg/mL (≈ 6.62 µM); in the test with Streptococcus mutans [5] it was 1.56 µg/mL (≈ 3.3 µM); in the test with Streptococcus sobrinus [6], 3.13 µg/mL (≈ 6.62 µM); against Streptococcus sobrinus [7], 3.13 µg/mL (≈ 6.62 µM); in the test with Actinomyces viscosus, 0.39 µg/mL (≈ 0.825 µM); with Porphyromonas gingivalis it was 0.78 µg/mL (≈ 1.65 µM). In addition, the minimum inhibitory concentration (MIC) in [8] came out at 3.13 µg/mL (≈ 6.62 µM); against Prevotella intermedia it was 0.78 µg/mL (≈ 1.65 µM); against Capnocytophaga ochracea, 1.56 µg/mL (≈ 3.3 µM); in the test on Fusobacterium nucleatum, 6.25 µg/mL (≈ 13.2 µM). Moreover, the inhibition in the test with Streptococcus sobrinus [1] was found to be 97.6%; with Streptococcus sobrinus [2] it was 64%; in the test with Streptococcus sobrinus [3] it was 2.9%.

Turning to `CC(C)C[C@H](c1c(O)c(C=O)c(O)c(C=O)c1O)[C@@H]1CC[C@@](C)(O)[C@@H]2C[C@H](C(C)(C)O)CC[C@]21C` [MACROCARPAL I], the MIC in the test with Streptococcus mutans [4] is 50 µg/mL (≈ 102 µM); in the test on Streptococcus mutans [5] it was 25 µg/mL (≈ 51 µM); against Streptococcus sobrinus [6], 100 µg/mL (≈ 204 µM); in the test on Streptococcus sobrinus [7], 100 µg/mL (≈ 204 µM); against Actinomyces viscosus, 12.5 µg/mL (≈ 25.5 µM); against Porphyromonas gingivalis, 6.25 µg/mL (≈ 12.7 µM). Besides, the MIC in test [8] is 12.5 µg/mL (≈ 25.5 µM); against Prevotella intermedia, 12.5 µg/mL (≈ 25.5 µM); in the test with Capnocytophaga ochracea it was 12.5 µg/mL (≈ 25.5 µM); against Fusobacterium nucleatum it was 25 µg/mL (≈ 51 µM). Besides, the inhibition stood at 86.9% with Streptococcus sobrinus [1], 26.3% with Streptococcus sobrinus [2] and 0% with Streptococcus sobrinus [3].

Take `CC(C)CC(c1c(O)c(C=O)c(O)c(C=O)c1O)[C@@H]1CC[C@@](C)(O)[C@@H]2C[C@H](C(C)(C)O)CC[C@]21C` (some centres not stated) [MACROCARPAL J]: the MIC against Streptococcus mutans [4] worked out at 50 µg/mL (≈ 102 µM); against Streptococcus mutans [5], 25 µg/mL (≈ 51 µM); with Streptococcus sobrinus [6], 100 µg/mL (≈ 204 µM); in the test on Streptococcus sobrinus [7], 100 µg/mL (≈ 204 µM); in the test on Actinomyces viscosus, 12.5 µg/mL (≈ 25.5 µM); with Porphyromonas gingivalis it was 6.25 µg/mL (≈ 12.7 µM). Also, the MIC in test [8] was found to be 12.5 µg/mL (≈ 25.5 µM); in the test on Prevotella intermedia it was 12.5 µg/mL (≈ 25.5 µM); with Capnocytophaga ochracea it was 12.5 µg/mL (≈ 25.5 µM); against Fusobacterium nucleatum, 25 µg/mL (≈ 51 µM). Besides, the figures for the inhibition in the test with Streptococcus sobrinus [1], in the test with Streptococcus sobrinus [2] and in the test on Streptococcus sobrinus [3] were 77.1%, 29.7% and 6.9%, respectively.

Regarding `Cc1ccc(C(C)C)c(O)c1` [THYMOL], the minimal inhibitory concentration (MIC) in the test on Streptococcus mutans [4] amounted to 400 µg/mL (≈ 2660 µM); against Streptococcus mutans [5], 400 µg/mL (≈ 2660 µM); against Streptococcus sobrinus [6], 200 µg/mL (≈ 1330 µM); in the test with Streptococcus sobrinus [7], 400 µg/mL (≈ 2660 µM); against Actinomyces viscosus, 200 µg/mL (≈ 1330 µM); against Porphyromonas gingivalis, 200 µg/mL (≈ 1330 µM). For the same compound, the MIC in test [8] is 200 µg/mL (≈ 1330 µM); with Prevotella intermedia, 200 µg/mL (≈ 1330 µM); in the test on Capnocytophaga ochracea it was 100 µg/mL (≈ 666 µM); against Fusobacterium nucleatum it was 50 µg/mL (≈ 333 µM).

By inhibition is commonly meant the percentage by which the read-out fell short of the control. Broadly, the MIC is the lowest concentration found to suppress growth.
